Laboratory results taken from patent publication US20060264443A1, “Treatment of rheumatoid arthritis” (priority 2002, published 2006).
Read-outs that look alike come from different tables or passages of the source.

Key:
[1] = tested on: patients with active severe rheumatoid arthritis; settings: for Serum C-reactive protein: normal reference range <10 mg/l; for Rheumatoid factor: normal reference range <14 IU/ml

## CS(=O)(=O)O.Cc1ccc(NC(=O)c2ccc(CN3CCN(C)CC3)cc2)cc1Nc1nccc(-c2cccnc2)n1 [SALT I]
[1]; 2 patients who completed the 12-week study
  anti-rheumatic effect, duration: sustained during the study period
[1]; 3 patients, 200 to 400 mg/day, up to 12 weeks
  outcome measures during SALT I therapy (overall): All outcome measures improved
[1]; Patient 1, week 8, baseline 1.75
  HAQ: 1.5
[1]; Patient 1, week 8, baseline 10
  Serum C-reactive protein: 11 mg/L
[1]; Patient 1, week 8, baseline 38
  Erythrocyte sedimentation rate: 23 mm/h
[1]; Patient 1, week 8, baseline 77
  Patient-assessed disease activity (VAS): 39 mm
[1]; Patient 1, week 8, baseline 79
  Pain (VAS): 42 mm
[1]; Patient 1, week 8, baseline 197
  Rheumatoid factor: 65 IU/ml
[1]; Patient 2, week 12, baseline 1.75
  HAQ: 0.75
[1]; Patient 2, week 12, baseline 36
  Serum C-reactive protein: 12 mg/L
[1]; Patient 2, week 12, baseline 77
  Pain (VAS): 26 mm
[1]; Patient 2, week 12, baseline 96
  Patient-assessed disease activity (VAS): 35 mm
[1]; Patient 2, week 12, baseline 501
  Rheumatoid factor: 270 IU/ml
[1]; Patient 2, week 12, no baseline value
  Erythrocyte sedimentation rate: 13 mm/h
[1]; Patient 3, week 12, baseline 1.5
  HAQ: 1.1
[1]; Patient 3, week 12, baseline 28
  Erythrocyte sedimentation rate: 12 mm/h
[1]; Patient 3, week 12, baseline 37
  Pain (VAS): 22 mm
[1]; Patient 3, week 12, baseline 42
  Serum C-reactive protein: 10 mg/L
[1]; Patient 3, week 12, baseline 69
  Patient-assessed disease activity (VAS): 23 mm
[1]; Patient no. 1, during the study, from 45 min
  Morning stiffness: none
[1]; Patient no. 3, 24 weeks
  blood erythrocyte sedimentation rate: 17 mm/h
  duration of the morning stiffness: 30 min
  serum CRP level: 9 mg/L
  serum rheumatoid factor level: 139 IU/ml
[1]; Patient no. 3, 24 weeks, 400 mg o.d.
  number of swollen joints: 15
[1]; Patient no. 3, during the study (12 weeks), from 180 min
  Morning stiffness: 75 min
[1]; all 3 patients
  response of rheumatoid arthritis to treatment: responded favorably
[1]; first week of treatment, subsided below baseline during second study week
  joint pain reported by all patients: increased joint pain
Patient with severe RA; January 2003, 400 mg daily, prior RA medication discontinued
  RA status: still in remission
Patient with severe RA; Jun. 14, 2001
  occasional macroscopic hematuria (RA-associated glomerulonephritis): had ceased
Patient with severe RA; Jun. 14, 2001, 400 mg/day, prednisone reduced to 5 mg o.d.
  patient-reported RA condition: further subjective improvement of their RA
Patient with severe RA; September 2001
  RA status: still in remission
Patient with severe RA; after 2 and 5 months of treatment, with prednisone 5 mg/day
  RA condition: further major improvements
Patient with severe RA; after several days, with prednisone 5 mg/day, 600 mg then 400 mg/day orally
  patient-reported general condition: improved joint motility and decrease of wrist swelling
Patient with severe RA; control visit April 17, 600 mg/day for nine days, pause, then 400 mg/day from April 11
  patient-reported RA condition: improved joint motility and decreased swelling particularly in the wrists
